This is an account of results in paper PMC7443224, “An UPLC-MS/MS Method for Simultaneous Quantification of the Components of Shenyanyihao Oral Solution in Rat Plasma” (BioMed Research International, 2020).

In general, Cmax refers to the peak of the concentration-time curve. By Tmax is commonly meant the time from dosing to the highest level. One may read the half-life as the time needed for the level to fall by half in the phase considered. Read a low half-life as fast loss.

Where “and” joins values, the source holds several entries; their conditions need not be identical. Equal entries are not always repeated.

This series in a line: Pharmacokinetic study in rat plasma after oral administration of Shenyanyihao oral solution (UPLC-MS/MS, noncompartmental). The note with it: for Cmax / Tmax / half-life / MRT: male, Sprague-Dawley; for Cmax: plasma; for MRT: read-out: MRT0‐∞. The class given is in vivo, Sprague-Dawley rats. How it is done:
Male Sprague-Dawley rats (180–220 g) were purchased from Shanghai SLAC Laboratory Animal Co., Ltd. (Shanghai, China) and housed in an environmentally controlled room with a natural light-dark cycle for 7 days before the experiment was carried out. The male Sprague-Dawley rats were randomly given a dose of 10 g/kg/day of Shenyanyihao oral solution by oral administration for pharmacokinetic experiments. All animal experiments were carried out according to the Guidelines for the Care and Use of Laboratory Animals and were approved by the Animal Ethics Committee of the Second Military Medical University.
The protein precipitation with methanol was applied for sample preparation. 50 μl of plasma spiked with 50 μl of mixed IS solution were thoroughly mixed with 100 μl methanol by vortexing for 30 s. The mixture was centrifuged at 12,000 rpm for 5 min. An aliquot of 100 μl from the supernatant was transferred and subsequently evaporated to dryness by vacuum concentration. Five μl of the supernatant was transferred for the UPLC-MS/MS analysis.
The analytes in plasma were measured by a simple and sensitive UPLC-MS/MS method. Chromatographic analysis was performed on an Agilent 1290 Infinity UPLC system consisting of a binary pump, a surveyor autosampling system, and a thermostatted column compartment. An Agilent Poroshell 120 EC-C18 column (3.0 mm × 100 mm, 2.7 μm) was used for chromatographic separation. The mobile phases of A (acetonitrile) and B (0.1% formic acid aqueous solution) were eluted at a flow rate of 0.4 ml/min with the following gradient conditions: 0-5 min, 50% A; 5-6 min, 50%-90% A; and 6-10 min, 90% A. The column temperature was maintained at 25°C, the autosampler was conditioned at 4°C, and the injection volume was 5 μl. The analysis time was 10 min per sample. An Agilent 6470 tandem mass spectrometer (Agilent Technologies, USA) equipped with an Agilent Jet Stream Technology (AJS) electrospray source interface (ESI) was used for MS detection. The mass spectrometric detection was optimized simultaneously in the positive and negative ion modes by multiple reaction monitoring (MRM). The main MS parameters of the ionized chamber are as follows: capillary voltage at 4000 V (positive)/3500 V (negative), gas temperature at 350°C, drying gas flow at 11 l/min, nebulizer pressure at 40 psi, sheath gas temperature at 400°C, and sheath gas flow at 11 l/min. Data acquisition and analysis were performed using the Agilent MassHunter WorkStation version B.07.00.
The rats were administered orally with Shenyanyihao oral solution. Blood samples from the ophthalmic venous plexus taken at 0.08, 0.17, 0.25, 0.33, 0.5, 1, 1.5, 2, 4, 6, 8, 12, 24, and 48 h after oral administration and at 0 h (predose) were collected (0.2 ml) into heparinized centrifuge tubes. The blood samples were immediately centrifuged at 4000 rpm at 4°C for 5 min, and the supernatant plasma was transferred into another tube and stored at -80°C until treatment.
Pharmacokinetic parameters were analyzed by a noncompartmental method using the WinNonlin7.0 pharmacokinetic program (Pharsight Corp., USA). The maximum concentration (Cmax) and time to reach the maximum concentration (Tmax ) were measured from values obtained from the concentration-time curve. All results were expressed as mean ± standard deviation (SD).

[1] abbreviates: rat, po, 10 g/kg/day, rat plasma, oral administration of Shenyanyihao oral solution 10 g/kg/day, n = 6, mean ± SD.
The mark [2] stands for this setting: rat plasma, oral administration of Shenyanyihao oral solution 10 g/kg/day, n = 6, mean ± SD.

Regarding `O=C(O)c1ccc(O)c(O)c1` [Protocatechuic acid, protocatechuic acid], the highest concentration (Cmax) under setting [1] stood at 26.2 ± 11.6 ng/mL. Also, under setting [2], the Tmax was found to be 0.5 h, the half-life is 11.3 ± 2.23 h, the MRT was determined as 6.6 ± 2.26 h and the “AUC0‐t” value was determined as 41.96 ± 11.42 ng/ml∗h. Further, under setting [2], the “AUC0‐∞” value was determined as 45.80 ± 12.60 ng/ml∗h, the “AUMC0‐∞” value was found to be 307.02 ± 152.54 ng/ml∗h^2, the CL worked out at 25.3 ± 7.83 mL/min/kg and the V d worked out at 24.09 ± 4.86 L/kg.
Compound `O=C(O)[C@H]1O[C@@H](Oc2cc3oc(-c4ccccc4)cc(=O)c3c(O)c2O)[C@H](O)[C@@H](O)[C@@H]1O` [Baicalin, baicalin] displayed a Cmax under setting [1] of more than 2500 ng/mL. Under setting [2], the time of peak concentration (Tmax) came out at 2.8 ± 1.1 h, the half-life is 5.01 ± 0.52 h, the MRT is 8.71 ± 2 h and the “AUC0‐t” value is 26525.1 ± 15523.7 ng/ml∗h. For the same compound, under setting [2], the “AUC0‐∞” value was determined as 26566.8 ± 15520.4 ng/ml∗h, the “AUMC0‐∞” value was found to be 229094.2 ± 146621.6 ng/ml∗h^2, the C max came to 2983.4 ± 1344.3 ng/mL and the CL was determined as 28.5 ± 15 mL/min/kg. Further, under setting [2], the V d came out at 12.89 ± 8.01 L/kg.
Turning to `COc1cc(/C=C/C(=O)O)ccc1O` [Ferulic acid, ferulic acid], under “rat, in vivo, po, 10 g/kg/day”, the “AUC0‐t” value was determined as 76.39 ± 21.43 ng/ml∗h, the “AUC0‐∞” value is 95.70 ± 25.36 ng/ml∗h, the “MRT0‐∞” value worked out at 12.50 ± 4.16 h and the V d came out at 18.01 ± 5.2 L/kg.
Regarding `O=c1cc(-c2ccccc2)oc2cc(O)c(O)c(O)c12` [Baicalein, baicalein], under setting [1], the concentration peaked (Cmax) at 14.2 ± 2.59 ng/mL. Under setting [2], the time of peak concentration (Tmax) was 3.6 ± 0.89 h, the half-life is 11.7 ± 4.78 h, the MRT was 15.2 ± 5.91 h and the “AUC0‐t” value is reported as 106.77 ± 46.19 ng/ml∗h. For the same compound, under setting [2], the “AUC0‐∞” value came to 128.95 ± 53.59 ng/ml∗h, the “AUMC0‐∞” value came out at 2190.95 ± 1741.10 ng/ml∗h^2, the CL was 145 ± 50.5 mL/min/kg and the V d is 131.54 ± 23.79 L/kg.
For the compound `C[N+]1(C)CCC[C@H]1C(=O)[O-]` [Stachydrine, stachydrine], under setting [2], the “AUC0‐t” value stood at 39256.8 ± 4031.7 ng/ml∗h, the “AUC0‐∞” value came out at 40196.0 ± 4088.2 ng/ml∗h, the “AUMC0‐∞” value amounted to 515393.7 ± 55002.7 ng/ml∗h^2 and the C max was found to be 2673.0 ± 163.0 ng/mL. Further, under setting [2], the CL stood at 1 ± 0.17 mL/min/kg, the “MRT0‐∞” value worked out at 12.82 ± 0.25 h, the T max is reported as 3.20 ± 1.10 h and the V d worked out at 0.76 ± 0.11 L/kg. Also, the “t 1/2” value under setting [2] was determined as 9.09 ± 0.51 h. The C max (rat plasma, oral administration of Shenyanyihao oral solution 10 g/kg/day, n = 6, mean ± SD, listed as stachydine) is more than 2500 ng/mL.
As for `O=C(O)[C@H](O)Cc1ccc(O)c(O)c1` [Danshensu], under setting [2], the “AUC0‐t” value was 556.04 ng/ml∗h and 556.04 ± 165.66 ng/ml∗h; the “AUC0‐∞” value was 569.72 ng/ml∗h and 569.72 ± 165.31 ng/ml∗h; the “AUMC0‐∞” value is 2049.56 ± 1061.35 ng/ml∗h^2; the C max was found to be 181.79 ± 59.58 ng/mL. Moreover, under setting [2], the CL was determined as 41.2 ± 14.3 mL/min/kg, the “MRT0‐∞” value is reported as 3.56 ± 1.71 h, the V d worked out at 13.67 ± 8.51 L/kg and the “t 1/2” value worked out at 3.91 ± 2.34 h.
`O=c1c(O[C@@H]2O[C@H](CO)[C@@H](O)[C@H](O)[C@H]2O)c(-c2ccc(O)c(O)c2)oc2cc(O)cc(O)c12` [Isoquercitrin, isoquercitrin]: the peak concentration (Cmax) under setting [1] came out at 1.65 ± 0.23 ng/mL. Under setting [2], the time of peak concentration (Tmax) is 0.5 h, the half-life is 26.4 ± 3.89 h, the MRT came to 33.7 ± 3.63 h and the “AUC0‐t” value worked out at 4.75 ± 0.68 ng/ml∗h. In addition, under setting [2], the “AUC0‐∞” value worked out at 8.98 ± 1.33 ng/ml∗h, the “AUMC0‐∞” value is given as 304.35 ± 69.29 ng/ml∗h^2, the CL is 56.7 ± 8.33 mL/min/kg and the V d was 127.91 ± 13.82 L/kg.
In the case of `O=C(/C=C/c1ccc(O)c(O)c1)O[C@H]1[C@H](O[C@@H]2O[C@H](CO)[C@@H](O)[C@H](O)[C@H]2O)[C@@H](O)[C@H](OCCc2ccc(O)c(O)c2)O[C@@H]1CO` [Plantamajoside, plantamajoside], under setting [2], the “AUC0‐t” value is listed as 3.99 ± 0.44 ng/ml∗h, the “AUC0‐∞” value was determined as 5.01 ± 0.71 ng/ml∗h, the “AUMC0‐∞” value turned out to be 66.31 ± 28.63 ng/ml∗h^2 and the C max amounted to 1.31 ± 0.23 ng/mL. For the same compound, under setting [2], the CL came to 78 ± 12.8 mL/min/kg, the “MRT0‐∞” value amounted to 12.76 ± 4.47 h, the T max was 1.40 ± 0.22 h and the V d amounted to 79.97 ± 18.00 L/kg. The “t 1/2” value under setting [2] amounted to 12.33 ± 3.92 h.
`O=C(/C=C/c1ccc(O)c(O)c1)O[C@@H]1C[C@](O)(C(=O)O)C[C@@H](O)[C@H]1O` [Chlorogenic acid, chlorogenic acid] registered a peak concentration (Cmax) under setting [1] of 3.53 ± 0.52 ng/mL. Under setting [2], the half-life was 16.7 ± 3.32 h, the MRT amounted to 15.4 ± 3.31 h, the “AUC0‐t” value worked out at 17.05 ± 2.86 ng/ml∗h and the “AUC0‐∞” value came to 21.95 ± 3.34 ng/ml∗h. Under setting [2], the “AUMC0‐∞” value was determined as 338.84 ± 99.46 ng/ml∗h^2, the CL came to 697.2 ± 113 mL/min/kg and the V d was found to be 1001.03 ± 202.53 L/kg.
